Results from patent US20180273528A1 (LES LABORATOIRES SERVIER, priority 2015, published 2018).

How the values were obtained:
[1] = target: T1, His-TEV-DYRK1A Kinase domain (aa127-485) (Homo sapiens, UniProt Q13627); experiment: Kinase ADP assay (ADP Hunter), DYRK1A kinase domain; type: biochemical; settings: 20 μM ATP
T1 construct: His-TEV-DYRK1A Kinase domain (aa127-485); His tag (N); TEV protease cleavage site (N)
Procedure, shortened: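 Compounds incubated 10 min at 30 °C with 20 nM enzyme, 40 μM peptide substrate and 20 μM ATP in pH 7.4 Hepes buffer with 10 mM MgCl2. ADP formed detected by ADP Hunter Plus reagents after 20 min at 30 °C, fluorescence read at 590 nm.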

[2] = target: T2, CDK9 (Homo sapiens, UniProt P50750); experiment: Kinase TR-FRET assay, CDK9; type: biochemical; settings: full-length human kinase, 10 μM ATP
T2 construct: full-length human kinases from Carna Biosciences; purchased Carna Biosciences 04-110
Description: Inhibition of the enzymatic activity of human kinases was evaluated in a Time-Resolved Fluorescence Resonance Energy Transfer (TR-FRET) assay in 384-well reaction plates. In this assay, full-length human kinases from Carna Biosciences—DYRK1A (NM_001396, ref. 04-130; 2.0 ng/μl), DYRK1B (NM_004714, ref. 04-131; 1.2 ng/p), CLK1 (NM_001162407, ref. 04-126; 0.7 ng/μl), CDK9 (NM_001261, ref. 04-110; 0.9 ng/μl), or GSK3β (NM_001146156, ref. 04-141; 2.0 ng/μl—were incubated for 40 minutes (DYRK1A and DYRK1B) or 100 minutes (CLK1, CDK9 and GSK3β) at room temperature with ATP (Sigma A2383, 10 μM) and a ULight™-labelled human Myelin Basic Protein (MBP) peptide substrate (Perkin Elmer TRF0109, 100 nM) in a reaction buffer composed of 50 mM HEPES pH7.4, 1 mM EGTA, 10 mM MgCl2, 2 mM DTT and 0.01% Tween20. Test compounds of the invention were added in reaction buffer at a range of concentrations from 0.1 nM to 30 μM. Following addition of EDTA (Sigma E7889, 10 mM) to stop the reaction, Europium-labelled mouse monoclonal antibody recognizing phospho-Thr232 in MBP (Perkin Elmer TRF0201, 1 nM) was added. After one hour, the reaction plates were read using a fluorescence reader (EnVision®, Perkin Elmer) at 620 nm and 665 nm (excitation at 340 nm); when the Europium donor fluorophore is excited by light at 340 nm, an energy transfer (620 nm) to the acceptor occurs, which will then emit light at 665 nm.

[3] = target: T3, DYRK1A (Homo sapiens, UniProt Q13627); experiment: Cellular DYRK1 autophosphorylation assay in U2-OS cells; type: cell-based; parameters: full-length, wild-type human DYRK1A (NM_001396) with an HA tag; expressed in transfected cells; host or cells: human U2-OS osteosarcoma cells, transient transfection of a pcDNA3.1 plasmid; settings: U2-OS cells transfected with HA-tagged human DYRK1A, 5 hours exposure; read-out: IC50 (μM) P-Ser520-Dyrk1A -Cell assay
Procedure, shortened: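 U2-OS cells treated with a compound concentration range for 5 h. Phospho-Ser520-DYRK1A measured by western blot densitometry or Mesoscale ELISA. IC50 from dose-response curves; for blots, ratio of phospho-Ser520 to total DYRK1A signal.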

[4] = target: T3, DYRK1A; experiment: Kinase TR-FRET assay, DYRK1A; type: biochemical; parameters: full-length, wild-type human DYRK1A (NM_001396) with an HA tag; expressed in transfected cells; host or cells: human U2-OS osteosarcoma cells, transient transfection of a pcDNA3.1 plasmid; settings: full-length human kinase, 10 μM ATP
Procedure, shortened: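 Compounds tested at 0.1 nM to 30 μM in reaction buffer; reaction stopped with 10 mM EDTA. Phosphorylated MBP detected with 1 nM Europium-labelled anti-phospho-Thr232 antibody by TR-FRET.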

[5] = target: T4, DYRK1B (Homo sapiens, UniProt Q9Y463); experiment: Kinase TR-FRET assay, DYRK1B; type: biochemical; settings: full-length human kinase, 10 μM ATP
T4 construct: full-length human kinases from Carna Biosciences; purchased Carna Biosciences 04-131
Description: Inhibition of the enzymatic activity of human kinases was evaluated in a Time-Resolved Fluorescence Resonance Energy Transfer (TR-FRET) assay in 384-well reaction plates. […] Test compounds of the invention were added in reaction buffer at a range of concentrations from 0.1 nM to 30 μM. Following addition of EDTA (Sigma E7889, 10 mM) to stop the reaction, Europium-labelled mouse monoclonal antibody recognizing phospho-Thr232 in MBP (Perkin Elmer TRF0201, 1 nM) was added.

T2 sequence (P50750 whole entry): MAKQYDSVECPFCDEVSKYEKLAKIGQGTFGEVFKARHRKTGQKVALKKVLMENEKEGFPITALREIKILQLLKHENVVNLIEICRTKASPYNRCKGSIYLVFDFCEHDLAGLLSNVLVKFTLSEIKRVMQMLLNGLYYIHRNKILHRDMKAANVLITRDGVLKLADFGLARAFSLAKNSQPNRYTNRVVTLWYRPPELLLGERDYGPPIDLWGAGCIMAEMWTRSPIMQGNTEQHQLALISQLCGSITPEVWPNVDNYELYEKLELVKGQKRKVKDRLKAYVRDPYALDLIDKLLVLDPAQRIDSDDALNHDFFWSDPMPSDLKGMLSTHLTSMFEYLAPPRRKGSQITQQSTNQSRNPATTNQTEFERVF
T2 sequence (O60563 whole entry partner): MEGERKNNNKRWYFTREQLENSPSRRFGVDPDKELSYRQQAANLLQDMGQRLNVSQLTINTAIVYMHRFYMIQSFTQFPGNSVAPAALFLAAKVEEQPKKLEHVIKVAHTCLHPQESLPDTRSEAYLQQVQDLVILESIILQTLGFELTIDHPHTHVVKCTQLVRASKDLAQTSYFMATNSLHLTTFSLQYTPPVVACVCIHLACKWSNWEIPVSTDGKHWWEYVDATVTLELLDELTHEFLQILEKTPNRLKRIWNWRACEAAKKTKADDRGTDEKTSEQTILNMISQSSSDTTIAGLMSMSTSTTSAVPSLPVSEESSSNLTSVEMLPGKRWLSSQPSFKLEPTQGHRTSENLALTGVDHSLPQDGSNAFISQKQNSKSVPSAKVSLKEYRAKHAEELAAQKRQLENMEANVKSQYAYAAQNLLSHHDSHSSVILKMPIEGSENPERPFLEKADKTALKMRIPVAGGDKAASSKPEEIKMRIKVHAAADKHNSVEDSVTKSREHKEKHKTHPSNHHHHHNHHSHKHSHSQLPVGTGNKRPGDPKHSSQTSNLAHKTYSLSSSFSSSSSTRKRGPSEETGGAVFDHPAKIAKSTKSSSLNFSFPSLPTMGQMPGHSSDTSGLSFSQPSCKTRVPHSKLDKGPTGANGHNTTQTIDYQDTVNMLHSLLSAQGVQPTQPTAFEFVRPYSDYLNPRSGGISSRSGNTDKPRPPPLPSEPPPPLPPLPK
T4 sequence (Q9Y463 whole entry): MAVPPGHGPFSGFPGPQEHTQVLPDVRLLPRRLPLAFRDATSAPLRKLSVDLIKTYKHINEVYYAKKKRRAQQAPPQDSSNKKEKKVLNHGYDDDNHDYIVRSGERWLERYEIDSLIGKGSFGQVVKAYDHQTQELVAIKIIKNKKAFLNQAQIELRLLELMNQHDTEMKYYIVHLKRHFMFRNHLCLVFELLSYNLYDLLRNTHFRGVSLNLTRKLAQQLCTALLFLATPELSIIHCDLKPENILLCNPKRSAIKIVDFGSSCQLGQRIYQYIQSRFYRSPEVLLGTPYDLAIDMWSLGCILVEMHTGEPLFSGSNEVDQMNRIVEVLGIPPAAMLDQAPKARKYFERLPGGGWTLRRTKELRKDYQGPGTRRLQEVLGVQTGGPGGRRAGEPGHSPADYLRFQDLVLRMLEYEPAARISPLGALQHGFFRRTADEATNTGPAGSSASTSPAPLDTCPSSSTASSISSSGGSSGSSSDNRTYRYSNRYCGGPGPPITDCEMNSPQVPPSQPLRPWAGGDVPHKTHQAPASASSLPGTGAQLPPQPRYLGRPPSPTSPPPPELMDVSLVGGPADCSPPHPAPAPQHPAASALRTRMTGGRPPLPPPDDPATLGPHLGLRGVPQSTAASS

Structure (SMILES)	IC50 [1]	IC50 [2]	IC50 [3]	IC50 [4]	IC50 [5]
Cc1nc2ccc(-c3cc(N)nc(N)c3)nc2n1C1CCCC1 [Example 1, 4-(3-cyclopentyl-2-methyl-3H-imidazo[4,5-b]pyridin-5-yl)pyridine-2,6-diamine]	0.01 µM	0.314 µM	0.08 µM	0.013 µM	0.004 µM
CCCn1c(C)nc2ccc(-c3cc(N)nc(N)c3)nc21 [Example 2, 4-(2-methyl-3-propyl-3H-imidazo[4,5-b]pyridin-5-yl)pyridine-2,6-diamine]	0.01 µM	0.383 µM	0.2 µM	0.008 µM	0.001 µM
Cc1nc2ccc(-c3cc(N)nc(N)c3)nc2n1CCC1CCCCC1 [Example 15, 4-[3-(2-cyclohexylethyl)-2-methyl-3H-imidazo[4,5-b]pyridin-5-yl]pyridine-2,6-diamine]	0.011 µM	0.47 µM	0.11 µM	0.004 µM	0.008 µM
Cc1nc2ccc(-c3cc(N)nc(N)c3)nc2n1CCc1ccco1 [Example 19, 4-{3-[2-(furan-2-yl)ethyl]-2-methyl-3H-imidazo[4,5-b]pyridin-5-yl}pyridine-2,6-diamine]	0.012 µM	1.95 µM	0.226 µM	0.003 µM	0.003 µM
Cc1nc2ccc(-c3cc(N)nc(N)c3)nc2n1Cc1cccs1 [Example 20, 4-[2-methyl-3-(thiophen-2-ylmethyl)-3H-imidazo[4,5-b]pyridin-5-yl]pyridine-2,6-diamine]	0.032 µM	2.92 µM	–	0.016 µM	0.016 µM
Cc1nc2ccc(-c3cc(N)nc(N)c3)nc2n1CCc1cccs1 [Example 26, 4-{2-methyl-3-[2-(thiophen-2-yl)ethyl]-3H-imidazo[4,5-b]pyridin-5-yl}pyridine-2,6-diamine]	0.007 µM	1.82 µM	–	0.004 µM	0.006 µM
Cc1nc2ccc(-c3cc(N)nc(N)c3)nc2n1CCc1ccsc1 [Example 29, 4-{2-methyl-3-[2-(thiophen-3-yl)ethyl]-3H-imidazo[4,5-b]pyridin-5-yl}pyridine-2,6-diamine]	0.011 µM	3.44 µM	0.057 µM	0.004 µM	0.011 µM
Cc1nc2ccc(-c3cc(N)nc(N)c3)nc2n1CC(C)(C)C [Example 30, 4-[3-(2,2-dimethylpropyl)-2-methyl-3H-imidazo[4,5-b]pyridin-5-yl]pyridine-2,6-diamine]	0.018 µM	3.57 µM	–	0.017 µM	0.125 µM
Cc1nc2ccc(-c3cc(N)nc(N)c3)nc2n1Cc1ccccc1Cl [Example 47, 4-[3-(2-chlorobenzyl)-2-methyl-3H-imidazo[4,5-b]pyridin-5-y]pyridine-2,6-diamine]	0.025 µM	0.728 µM	–	0.003 µM	0.046 µM
Cc1nc2ccc(-c3cc(N)nc(N)c3)nc2n1Cc1cc(Cl)ccc1Cl [Example 57, 4-[3-(2,5-dichlorobenzyl)-2-methyl-3H-imidazo[4,5-b]pyridin-5-yl]pyridine-2,6-diamine]	0.085 µM	> 10 µM	–	0.026 µM	0.005 µM
CCCC(C)n1c(C)nc2ccc(-c3cc(N)nc(N)c3)nc21 (stereo not drawn) [Example 64, 4-[2-methyl-3-(pentan-2-yl)-3H-imidazo[4,5-b]pyridin-5-yl]pyridine-2,6-diamine]	0.026 µM	> 10 µM	–	0.009 µM	0.03 µM
CCC(CC)n1c(C)nc2ccc(-c3cc(N)nc(N)c3)nc21 [Example 68, 4-[2-methyl-3-(pentan-3-yl)-3H-imidazo[4,5-b]pyridin-5-yl]pyridine-2,6-diamine]	0.193 µM	> 10 µM	–	0.029 µM	0.132 µM
CCCCn1c(C)nc2ccc(-c3cc(N)nc(NCc4ccccc4)c3)nc21 [Example 231, N-benzyl-4-(3-butyl-2-methyl-3H-imidazo[4,5-b]pyridin-5-yl)pyridine-2,6-diamine]	0.046 µM	> 10 µM	–	0.011 µM	0.003 µM
CCCCn1c(C)nc2ccc(-c3cc(N)nc(NC(=O)Cc4ccccc4)c3)nc21 [Example 235, N-[6-amino-4-(3-butyl-2-methyl-3H-imidazo[4,5-b]pyridin-5-yl)pyridin-2-yl]-2-phenylacetamide]	0.207 µM	> 10 µM	–	0.013 µM	0.091 µM
Cc1nc2ccc(-c3ccnc(N)c3)nc2n1CCC1CCCCC1 [Example 237, 4-[3-(2-cyclohexylethyl)-2-methyl-3H-imidazo[4,5-b]pyridin-5-yl]pyridin-2-amine]	0.045 µM	0.718 µM	–	0.005 µM	0.005 µM

Continued, values first:

IC50 [1]	IC50 [2]	IC50 [3]	IC50 [4]	IC50 [5]	Structure (SMILES)
0.035 µM	> 10 µM	–	0.012 µM	0.019 µM	Cc1nc2ccc(-c3cc(N)nc(N)c3)nc2n1CCCN1CCCC1=O [Example 13, 1-{3-[5-(2,6-diaminopyridin-4-yl)-2-methyl-3H-imidazo[4,5-b]pyridin-3-yl]propyl}pyrrolidin-2-one]
0.008 µM	3.53 µM	–	0.005 µM	0.015 µM	CC(=O)Nc1ccc(CCn2c(C)nc3ccc(-c4cc(N)nc(N)c4)nc32)cc1 [Example 24, N-(4-{2-[5-(2,6-diaminopyridin-4-yl)-2-methyl-3H-imidazo[4,5-b]pyridin-3-yl]ethyl}phenyl)acetamide]
0.01 µM	1.84 µM	0.228 µM	0.007 µM	0.006 µM	Cc1nc2ccc(-c3cc(N)nc(N)c3)nc2n1C(C)(C)C [Example 25, 4-(3-tert-butyl-2-methyl-3H-imidazo[4,5-b]pyridin-5-yl)pyridine-2,6-diamine]
0.056 µM	> 10 µM	–	0.015 µM	0.005 µM	Cc1nc2ccc(-c3cc(N)nc(N)c3)nc2n1CCOc1cccc2ccccc12 [Example 27, 4-{2-methyl-3-[2-(naphthalen-1-yloxy)ethyl]-3H-imidazo[4,5-b]pyridin-5-yl}pyridine-2,6-diamine]
0.01 µM	1.4 µM	–	0.03 µM	0.015 µM	CCC(C)Cn1c(C)nc2ccc(-c3cc(N)nc(N)c3)nc21 (stereo not drawn) [Example 34, 4-[2-methyl-3-(2-methylbutyl)-3H-imidazo[4,5-b]pyridin-5-yl]pyridine-2,6-diamine]
0.021 µM	> 10 µM	–	0.002 µM	0.003 µM	Cc1nc2ccc(-c3cc(N)nc(N)c3)nc2n1CCc1ccc(Cl)cc1Cl [Example 59, 4-{3-[2-(2,4-dichlorophenyl)ethyl]-2-methyl-3H-imidazo[4,5-b]pyridin-5-yl}pyridine-2,6-diamine]
